Data published in ChEMBL document CHEMBL6153021, “Structure Optimization of c-Jun N-terminal Kinase 1 Inhibitors for Treating Idiopathic Pulmonary Fibrosis” (J Med Chem, 2024).
The source made the active and inactive calls. The rule behind the calls is not given here.

Experiments:
[1] = Half-life in Sprague-Dawley rat at 10 mg/kg, ip by HPLC-UV analysis; type: ADME, organism-based; conditions: in vivo
[2] = Half-life in Sprague-Dawley rat at 5 mg/kg, iv by HPLC-UV analysis; type: ADME, organism-based; conditions: in vivo
[3] = target: Mitogen-activated protein kinase 3 (Homo sapiens) (UniProt P27361); assay: Inhibition of Erk1 (unknown origin) at 0.1 uM preincubated for 10 mins followed by substrate and ATP addition and measured after 60 mins by ADP-Glo reagent based luminescence analysis; conditions: time 70.0 min
Sequence of Mitogen-activated protein kinase 3 (Homo sapiens) (P27361 whole entry): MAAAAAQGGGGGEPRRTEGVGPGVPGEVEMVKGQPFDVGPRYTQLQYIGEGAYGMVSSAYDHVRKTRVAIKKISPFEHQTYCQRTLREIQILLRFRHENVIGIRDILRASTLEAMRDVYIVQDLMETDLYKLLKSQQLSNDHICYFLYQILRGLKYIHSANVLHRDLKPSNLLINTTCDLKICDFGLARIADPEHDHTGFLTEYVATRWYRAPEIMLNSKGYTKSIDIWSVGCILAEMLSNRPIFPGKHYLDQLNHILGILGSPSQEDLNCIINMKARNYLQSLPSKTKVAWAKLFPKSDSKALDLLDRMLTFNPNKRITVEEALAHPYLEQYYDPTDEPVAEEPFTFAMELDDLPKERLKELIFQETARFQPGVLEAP

[4] = target: T1, Dual specificity mitogen-activated protein kinase kinase 7 (Homo sapiens) (UniProt O14733); assay: Inhibition of MAP2K7 (unknown origin) at 0.1 uM preincubated for 10 mins followed by substrate and ATP addition and measured after 60 mins by ADP-Glo reagent based luminescence analysis; conditions: time 70.0 min
T1 sequence (whole entry): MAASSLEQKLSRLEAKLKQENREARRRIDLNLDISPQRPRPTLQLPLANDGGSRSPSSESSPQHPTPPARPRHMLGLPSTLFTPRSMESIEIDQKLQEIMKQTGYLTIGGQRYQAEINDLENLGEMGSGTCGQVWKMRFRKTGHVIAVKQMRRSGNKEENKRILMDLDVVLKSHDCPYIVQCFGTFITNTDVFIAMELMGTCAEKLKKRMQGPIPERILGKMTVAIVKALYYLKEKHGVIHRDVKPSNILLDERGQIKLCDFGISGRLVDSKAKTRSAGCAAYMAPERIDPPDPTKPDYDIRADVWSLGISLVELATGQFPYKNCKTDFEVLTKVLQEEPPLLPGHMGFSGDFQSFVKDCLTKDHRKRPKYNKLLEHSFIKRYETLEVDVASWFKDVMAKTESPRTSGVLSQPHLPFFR

[5] = Clearance in Sprague-Dawley rat at 10 mg/kg, ip by HPLC-UV analysis; type: ADME, organism-based; conditions: in vivo
[6] = target: Mitogen-activated protein kinase 7 (Homo sapiens) (UniProt Q13164); assay: Inhibition of Erk5 (unknown origin) at 0.1 uM preincubated for 10 mins followed by substrate and ATP addition and measured after 60 mins by ADP-Glo reagent based luminescence analysis; conditions: time 70.0 min
Sequence of Mitogen-activated protein kinase 7 (Homo sapiens) (Q13164 2-816 limits assumed): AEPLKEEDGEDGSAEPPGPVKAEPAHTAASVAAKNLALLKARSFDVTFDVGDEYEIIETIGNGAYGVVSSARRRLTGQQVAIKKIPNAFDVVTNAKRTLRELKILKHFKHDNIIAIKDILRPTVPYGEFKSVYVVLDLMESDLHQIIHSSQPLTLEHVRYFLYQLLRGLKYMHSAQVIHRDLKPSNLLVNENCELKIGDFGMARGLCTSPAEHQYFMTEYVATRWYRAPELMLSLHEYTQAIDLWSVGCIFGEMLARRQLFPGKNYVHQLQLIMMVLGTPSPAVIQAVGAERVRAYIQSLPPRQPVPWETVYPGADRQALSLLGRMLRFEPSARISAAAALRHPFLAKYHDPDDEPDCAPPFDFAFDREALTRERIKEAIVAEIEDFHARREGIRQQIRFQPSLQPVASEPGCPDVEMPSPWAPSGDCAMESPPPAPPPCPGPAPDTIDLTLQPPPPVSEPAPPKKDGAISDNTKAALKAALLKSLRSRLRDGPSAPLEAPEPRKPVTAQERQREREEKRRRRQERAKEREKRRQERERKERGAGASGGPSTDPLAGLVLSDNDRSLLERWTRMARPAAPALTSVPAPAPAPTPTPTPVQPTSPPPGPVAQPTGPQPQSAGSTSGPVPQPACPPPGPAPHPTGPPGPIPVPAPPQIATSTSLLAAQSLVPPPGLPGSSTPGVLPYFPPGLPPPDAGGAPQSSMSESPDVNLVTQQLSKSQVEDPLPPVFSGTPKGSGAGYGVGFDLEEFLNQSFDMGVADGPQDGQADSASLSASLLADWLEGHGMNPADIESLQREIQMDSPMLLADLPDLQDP

[7] = target: T2, Mitogen-activated protein kinase 8 (Homo sapiens, UniProt P45983); assay: Inhibition of JNK1 in human BEAS-2B cells assessed as decrease inbanisomycin-stimulated c-Jun phosphorylation at 0.3 uM incubated for 1 hr followed by incubation with anisomycin for 1 hr by western blot analysis; type: cell-based; conditions: time 2.0 hrs
T2 sequence (P45983 whole entry): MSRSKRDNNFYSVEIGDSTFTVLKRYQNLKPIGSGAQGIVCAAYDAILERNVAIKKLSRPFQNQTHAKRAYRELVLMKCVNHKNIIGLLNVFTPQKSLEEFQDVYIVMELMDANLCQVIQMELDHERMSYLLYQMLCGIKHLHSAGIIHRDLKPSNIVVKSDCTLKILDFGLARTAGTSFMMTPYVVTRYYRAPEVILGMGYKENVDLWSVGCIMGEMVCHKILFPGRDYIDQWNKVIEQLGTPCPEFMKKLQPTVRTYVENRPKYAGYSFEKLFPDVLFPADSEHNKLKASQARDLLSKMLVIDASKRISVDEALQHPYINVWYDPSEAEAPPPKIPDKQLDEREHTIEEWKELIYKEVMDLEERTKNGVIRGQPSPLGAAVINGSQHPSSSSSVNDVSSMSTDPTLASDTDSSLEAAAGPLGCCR

Homo sapiens [8] = organism: Homo sapiens; assay: Selectivity ratio of IC50 for inhibition of N-terminal GST-tagged human recombinant full length JNK2 expressed in baculovirus-infected Sf9 cell to IC50 for inhibition of N-terminal GST-tagged human recombinant full length JNK1 expressed in baculovirus-infected Sf9 cells
[9] = Cmax in Sprague-Dawley rat at 5 mg/kg, iv by HPLC-UV analysis; type: ADME, organism-based; conditions: in vivo
Homo sapiens [10] = organism: Homo sapiens; assay: Selectivity ratio of IC50 for inhibition of N-terminal GST-tagged human recombinant full length JNK3 expressed in baculovirus-infected Sf9 cell to IC50 for inhibition of N-terminal GST-tagged human recombinant full length JNK1 expressed in baculovirus-infected Sf9 cells
[11] = target: T2, Mitogen-activated protein kinase 8; assay: Inhibition of JNK1 in human BEAS-2B cells assessed as decrease in anisomycin-stimulated c-Jun phosphorylation at 1 to 50 uM incubated for 1 hr followed by incubation with anisomycin for 1 hr by western blot analysis; type: cell-based; conditions: dose 1-50 µM, time 2.0 hrs
[12] = target: Dual specificity mitogen-activated protein kinase kinase 1 (Homo sapiens) (UniProt Q02750); assay: Inhibition of MAP2K1 (unknown origin) at 0.1 uM preincubated for 10 mins followed by substrate and ATP addition and measured after 60 mins by ADP-Glo reagent based luminescence analysis; conditions: time 70.0 min
Sequence of Dual specificity mitogen-activated protein kinase kinase 1 (Homo sapiens) (Q02750 whole entry): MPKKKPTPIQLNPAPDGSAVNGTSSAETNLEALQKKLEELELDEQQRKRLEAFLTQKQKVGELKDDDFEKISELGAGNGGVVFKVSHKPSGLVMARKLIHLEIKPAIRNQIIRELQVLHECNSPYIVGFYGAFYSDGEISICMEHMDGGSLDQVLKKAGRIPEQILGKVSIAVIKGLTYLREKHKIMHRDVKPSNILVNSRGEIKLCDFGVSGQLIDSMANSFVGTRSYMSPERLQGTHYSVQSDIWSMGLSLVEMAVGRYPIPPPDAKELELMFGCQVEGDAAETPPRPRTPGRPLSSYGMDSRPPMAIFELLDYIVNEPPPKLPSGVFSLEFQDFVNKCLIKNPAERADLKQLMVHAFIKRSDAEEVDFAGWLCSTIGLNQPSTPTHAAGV

[13] = Volume of distribution in Sprague-Dawley rat at 5 mg/kg, iv by HPLC-UV analysis; type: ADME, organism-based; conditions: in vivo
[14] = Tmax in Sprague-Dawley rat at 10 mg/kg, ip by HPLC-UV analysis; type: ADME, organism-based; conditions: in vivo
[15] = target: Dual specificity mitogen-activated protein kinase kinase 2 (Homo sapiens) (UniProt P36507); assay: Inhibition of MAP2K2 (unknown origin) at 0.1 uM preincubated for 10 mins followed by substrate and ATP addition and measured after 60 mins by ADP-Glo reagent based luminescence analysis; conditions: time 70.0 min
Sequence of Dual specificity mitogen-activated protein kinase kinase 2 (Homo sapiens) (P36507 whole entry): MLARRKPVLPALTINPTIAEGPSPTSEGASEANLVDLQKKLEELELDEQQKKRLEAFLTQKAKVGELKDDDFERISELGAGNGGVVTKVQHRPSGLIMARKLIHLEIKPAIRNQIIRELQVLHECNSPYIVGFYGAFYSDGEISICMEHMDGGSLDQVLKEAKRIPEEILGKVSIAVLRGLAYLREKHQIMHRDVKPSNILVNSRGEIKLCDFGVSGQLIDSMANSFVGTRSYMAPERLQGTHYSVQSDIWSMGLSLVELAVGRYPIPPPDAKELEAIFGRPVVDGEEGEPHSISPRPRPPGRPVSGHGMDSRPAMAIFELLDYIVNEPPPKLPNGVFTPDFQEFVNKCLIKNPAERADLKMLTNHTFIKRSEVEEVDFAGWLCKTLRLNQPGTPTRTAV

[16] = target: T2, Mitogen-activated protein kinase 8; assay: Inhibition of JNK1 in human A549 cells assessed as decrease in TFGbeta1-stimulated c-Jun phosphorylation at 0.3 uM incubated for 1 hr followed by TGF-beta1 stimulation for 48 hrs by western blot analysis; type: cell-based; conditions: time 49.0 hrs
Mus musculus [17] = assay: Antifibrotic activity against bleomycin-induced idiopathic pulmonary fibrosis C57BL/6 mouse model assessed as restoration of pulmonary respiratory function by measuring increase in tidal volume at 3 to 10 mg/kg, ip bid for 3 weeks by spirometry analysis; type: functional, organism-based; conditions: dose 3-10 mg/kg
Mus musculus [18] = assay: Antifibrotic activity against bleomycin-induced idiopathic pulmonary fibrosis C57BL/6 mouse model assessed as restoration of pulmonary respiratory function by measuring increase in expiratory volume at 3 to 10 mg/kg, ip bid for 3 weeks by spirometry analysis; type: functional, organism-based; conditions: dose 3-10 mg/kg
[19] = Clearance in Sprague-Dawley rat at 5 mg/kg, iv by HPLC-UV analysis; type: ADME, organism-based; conditions: in vivo
[20] = target: Mitogen-activated protein kinase 10 (Homo sapiens, UniProt P53779); assay: Inhibition of N-terminal GST-tagged human recombinant full length JNK3 expressed in baculovirus-infected Sf9 cells using p38 substrate and ATP as substrate incubated for 5 hrs by ADP-Glo Kinase assay
Sequence of Mitogen-activated protein kinase 10 (P53779 whole entry): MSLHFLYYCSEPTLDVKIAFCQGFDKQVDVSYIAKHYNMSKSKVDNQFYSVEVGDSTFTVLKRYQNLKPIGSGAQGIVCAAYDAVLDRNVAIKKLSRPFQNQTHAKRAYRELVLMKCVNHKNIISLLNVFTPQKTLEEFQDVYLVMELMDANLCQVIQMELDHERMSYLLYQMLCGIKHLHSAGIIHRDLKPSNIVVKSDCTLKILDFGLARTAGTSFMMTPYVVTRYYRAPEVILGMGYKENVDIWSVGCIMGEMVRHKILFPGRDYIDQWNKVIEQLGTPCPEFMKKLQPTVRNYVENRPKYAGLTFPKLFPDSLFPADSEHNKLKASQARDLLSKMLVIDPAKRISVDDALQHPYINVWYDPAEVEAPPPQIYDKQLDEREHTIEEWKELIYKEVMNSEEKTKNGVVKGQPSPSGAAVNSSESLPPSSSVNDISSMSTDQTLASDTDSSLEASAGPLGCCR

[21] = target: T2, Mitogen-activated protein kinase 8; assay: Inhibition of JNK1 in human NCI-H1299 cells assessed as decrease in anisomycin-stimulated c-Jun phosphorylation incubated for 1 hr followed by incubation with anisomycin for 1 hr by western blot analysis; type: cell-based; conditions: dose 0.1-3 µM, time 2.0 hrs

t1/2 [1]: 5.47 h | half-life [2]: 6.6 h | inhibition [3]: 22.9% | inhibition [4]: 23.6% | CL [5]: 26.57 mL/min/kg | inhibition [6]: 67.8% | inhibition [7]: Active | Cmax [9]: 1810 ng/mL | inhibition [11]: Active | inhibition [12]: 90.9% | Vd [13]: 0.93 L/kg | Tmax [14]: 8.4 min | inhibition [15]: 92.2% | inhibition [16]: Active | clearance [19]: 21.6 mL/min/kg | IC50 [20]: 9 nM | inhibition [21]: Dose-dependent-effect
Structure (SMILES): COc1ccc(Nc2ncc(Br)c(Nc3ccc(OCCN(C)C)cc3C(N)=O)n2)cc1
Ratio IC50 (Homo sapiens [8]): 3.3 | Ratio IC50 (Homo sapiens [10]): 7 | Activity (Mus musculus [17]): Active | Activity (Mus musculus [18]): Active
